Assays:
Format in all cases: binding
LTB4R = biological target: T1, LTB4R (Homo sapiens, UniProt Q15722); test: NanoBRET screen HiBiT-LTB4R in HEK293
T1 construct: purchased Promega (in-house HiBiT-GPCR construct library, NanoBRET)
Method: (§1) Each tracer candidate was screened across the entire library of HiBiT-GPCR constructs using NanoBRET as the detection modality. As depicted in Figure 4A, the specificity of interactions was evaluated through decrease in BRET due to competitive displacement of a bound tracer by excess parental compound. Each tracer was analyzed for binding to each HiBiT-GPCR fusion in the absence and in the presence of competing parental compound. Briefly, HEK293 cells were transfected with HiBiT-GPCR constructs diluted into promoterless DNA to reduce expression and maximize translocation to the cell surface. Each tracer candidate was then screened at concentrations of 1 μM and 0.1 μM across cells expressing these fusions. Cells were treated for 1.5 h with tracer either alone or in the presence of 20 μM competing parental compound (i.e., control). BRET was measured upon addition of purified LgBiT and subsequent complementation with HiBiT genetically fused to a GPCR. The specificity of interactions was assessed through a decrease in BRET signal due to competitive displacement of the bound tracer. To further gauge the robustness of these interactions, the fold response over the control (i.e., BRETtracer/BRETcontrol) was calculated. We chose a 1.5-fold response, which translates to ≥7-fold signal over noise as the minimal threshold required to score an interaction as positive. […]. Below we highlight the screening results obtained for our exemplary fluorescent tracers based on Clozapine, Amitriptyline and AZD1283.
(§2) HiBiT-GPCR DNA constructs were diluted in 10 mM Tris pH 8 to a final concentration of 0.01 μg/μL, arrayed in 96-well plates and stored at −20 °C. For transfection, HEK293 cells were suspended in Opti-MEM (without phenol red) supplemented with 2% fetal bovine serum (Seradigm) and 100 units/mL penicillin–streptomycin (Gibco) at a final concentration of 220,000 cells/mL and dispensed into white 96-well plates at 90 μL/well. Subsequent transfections and screens were carried using an Agilent Bravo Automated Liquid Handling Platform. First, the 96-well HiBiT DNA arrays were diluted 25-fold in Opti-MEM (without serum or phenol red) to a final concentration of 0.0004 μg/μL and 20 μL of the diluted DNAs were transferred into new 96-well plates. Next, promoterless carrier DNA (1 μg/μL) was diluted 25-fold (0.04 μg/μL) and then dispensed into the diluted arrays at 20 μL/well. Following brief mixing, Viafect transfection reagent (Promega) diluted 16-fold into Opti-MEM was dispensed into the plates at 40 μL/well. After mixing by pipetting, plates were incubated for 10 min on the pipetting station deck. The DNA-transfection reagent complexes were then added to plates containing cells. To facilitate the screen, 10 μL of DNA-transfection reagent complexes were added in duplicates to the top 4 and bottom 4 rows, resulting in two identical 48-well arrays per plate. Plates with transfected cells were incubated for 18–20 h at 37 °C/5% CO2. A screen of each tracer across the entire library using two different concentrations requires duplicate plates of transfected cells. Depending on the number of tracers being screened, transfections can be scaled up using the same ratios. The next day, for each tracer, four 20× screening solutions in tracer dilution buffer (Promega) were prepared: two duplicates at final concentration of 20 μM and two duplicates at a final concentration of 2 μM. A competing unmodified compound was added to one of each duplicate at a final concentration of 400 μM. The four resulting solutions were diluted 4-fold in Opti-MEM without serum or phenol red to generate 5× solutions (5 µM and 0.5 µM tracer +/− 100 μM competing compound). To screen the library, a BioTek MultiFlo FX liquid dispenser was used to dispense 22.5 µL of tracer solution to the top 4 rows and 22.5 µL tracer + competing compound solution to the 4 bottom rows. Plates were briefly mixed on an orbital shaker and incubated for 1.5 h at room temperature. […]

TACR2 = biological target: T2, TACR2 (Homo sapiens, UniProt P21452); test: NanoBRET screen HiBiT-TACR2 in HEK293
T2 construct: purchased Promega (in-house HiBiT-GPCR construct library, NanoBRET)
T2 sequence (P21452 1-398): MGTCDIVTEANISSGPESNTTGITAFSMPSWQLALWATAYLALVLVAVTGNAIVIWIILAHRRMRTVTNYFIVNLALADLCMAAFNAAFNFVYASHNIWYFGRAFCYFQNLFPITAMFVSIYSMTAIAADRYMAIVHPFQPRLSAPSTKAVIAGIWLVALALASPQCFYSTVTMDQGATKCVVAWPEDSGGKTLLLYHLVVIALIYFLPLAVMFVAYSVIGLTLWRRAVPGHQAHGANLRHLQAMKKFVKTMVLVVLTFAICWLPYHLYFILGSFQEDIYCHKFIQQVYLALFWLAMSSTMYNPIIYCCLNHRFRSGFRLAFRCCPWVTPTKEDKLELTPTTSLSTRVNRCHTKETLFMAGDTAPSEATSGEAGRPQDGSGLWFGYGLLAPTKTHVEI
Method: as §1, §2

PTGFR = biological target: T3, PTGFR (Homo sapiens, UniProt P43088); test: NanoBRET screen HiBiT-PTGFR in HEK293
T3 construct: purchased Promega (in-house HiBiT-GPCR construct library, NanoBRET)
T3 sequence (P43088 whole entry): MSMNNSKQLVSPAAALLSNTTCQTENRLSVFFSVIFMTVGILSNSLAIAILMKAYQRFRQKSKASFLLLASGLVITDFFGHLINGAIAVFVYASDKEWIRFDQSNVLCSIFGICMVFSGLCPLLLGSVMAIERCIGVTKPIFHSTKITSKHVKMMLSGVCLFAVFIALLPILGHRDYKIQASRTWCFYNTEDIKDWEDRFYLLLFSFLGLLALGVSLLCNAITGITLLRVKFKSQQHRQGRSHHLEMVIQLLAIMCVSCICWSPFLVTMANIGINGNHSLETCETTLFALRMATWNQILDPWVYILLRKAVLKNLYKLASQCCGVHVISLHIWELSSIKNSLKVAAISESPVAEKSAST
Method: as §1, §2

AVPR1B = biological target: T4, AVPR1B (Homo sapiens, UniProt P47901); test: NanoBRET screen HiBiT-AVPR1B in HEK293
T4 construct: purchased Promega (in-house HiBiT-GPCR construct library, NanoBRET)
T4 sequence (P47901 1-424): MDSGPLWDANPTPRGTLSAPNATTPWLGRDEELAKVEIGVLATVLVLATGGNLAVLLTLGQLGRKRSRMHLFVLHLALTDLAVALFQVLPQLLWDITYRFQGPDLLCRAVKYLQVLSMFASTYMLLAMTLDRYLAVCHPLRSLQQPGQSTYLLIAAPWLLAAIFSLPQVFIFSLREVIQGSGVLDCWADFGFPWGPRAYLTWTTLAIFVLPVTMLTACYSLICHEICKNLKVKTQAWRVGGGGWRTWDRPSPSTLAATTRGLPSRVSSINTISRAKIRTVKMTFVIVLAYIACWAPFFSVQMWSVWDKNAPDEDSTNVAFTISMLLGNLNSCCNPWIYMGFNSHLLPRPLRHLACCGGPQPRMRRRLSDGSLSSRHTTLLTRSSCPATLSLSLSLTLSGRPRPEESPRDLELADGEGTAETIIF
Method: as §1, §2

GHSR = biological target: T5, GHSR (Homo sapiens, UniProt Q92847); test: NanoBRET screen HiBiT-GHSR in HEK293
T5 construct: purchased Promega (in-house HiBiT-GPCR construct library, NanoBRET)
T5 sequence (Q92847 whole entry): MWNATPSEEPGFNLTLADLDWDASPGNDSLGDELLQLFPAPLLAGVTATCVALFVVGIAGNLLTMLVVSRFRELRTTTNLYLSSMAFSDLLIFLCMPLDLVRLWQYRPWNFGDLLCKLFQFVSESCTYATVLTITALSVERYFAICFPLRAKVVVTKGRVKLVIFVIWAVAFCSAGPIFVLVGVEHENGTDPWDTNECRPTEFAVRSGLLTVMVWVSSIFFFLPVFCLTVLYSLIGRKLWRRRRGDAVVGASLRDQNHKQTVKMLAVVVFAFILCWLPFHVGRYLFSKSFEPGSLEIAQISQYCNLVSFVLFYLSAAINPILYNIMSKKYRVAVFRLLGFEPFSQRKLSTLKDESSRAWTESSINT
Method: as §1, §2

T1 sequence (Q15722 whole entry): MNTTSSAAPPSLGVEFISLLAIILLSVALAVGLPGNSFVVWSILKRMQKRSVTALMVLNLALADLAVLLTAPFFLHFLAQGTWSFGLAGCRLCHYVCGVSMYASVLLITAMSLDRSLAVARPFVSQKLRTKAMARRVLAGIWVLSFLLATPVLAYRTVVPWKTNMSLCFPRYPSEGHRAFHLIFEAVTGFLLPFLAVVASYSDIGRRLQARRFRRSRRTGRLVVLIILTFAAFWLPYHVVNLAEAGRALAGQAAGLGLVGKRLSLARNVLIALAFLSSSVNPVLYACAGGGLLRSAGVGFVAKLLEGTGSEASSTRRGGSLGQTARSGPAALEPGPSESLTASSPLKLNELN

Row | SMILES | NanoBRET Fold Response (LTB4R; LTB4R, tracer 0.1μM) | NanoBRET Fold Response (LTB4R; LTB4R, tracer 1μM) | NanoBRET Fold Response (TACR2; TACR2, tracer 0.1μM) | NanoBRET Fold Response (TACR2; TACR2, tracer 1μM) | NanoBRET Fold Response (PTGFR; PTGFR, tracer 0.1μM) | NanoBRET Fold Response (PTGFR; PTGFR, tracer 1μM) | NanoBRET Fold Response (AVPR1B; AVPR1B, tracer 0.1μM) | NanoBRET Fold Response (AVPR1B; AVPR1B, tracer 1μM) | NanoBRET Fold Response (GHSR; GHSR, tracer 0.1μM) | NanoBRET Fold Response (GHSR; GHSR, tracer 1μM) | NanoBRET Fold Response (LTB4R; LTB4R, 0.1μM tracer) | NanoBRET Fold Response (LTB4R; LTB4R, 1μM tracer) | NanoBRET Fold Response (TACR2; TACR2, 0.1μM tracer) | NanoBRET Fold Response (PTGFR; PTGFR, 0.1μM tracer) | NanoBRET Fold Response (PTGFR; PTGFR, 1μM tracer) | NanoBRET Fold Response (AVPR1B; AVPR1B, 0.1μM tracer) | NanoBRET Fold Response (GHSR; GHSR, 0.1μM tracer) | NanoBRET Fold Response (GHSR; GHSR, 1μM tracer) | also measured
1 | O=C(CCc1ccc2n1[B-](F)(F)[N+]1=C(c3ccc[nH]3)C=CC1=C2)NCc1ccc(C(=O)NCCOCCC(=O)N[C@@H]2CC[C@@]3(O)[C@H]4Cc5ccc(O)c6c5[C@@]3(CCN4CC3CC3)[C@H]2O6)cc1 [Naltrexone-3-NB590] | 0.68 | 1.06 | 0.82 | 0.91 | 1.10 | 0.91 | 1.19 | 1.17 | 1.01 | 0.90 | – | – | – | – | – | – | – | – | –
2 | CC(C)N(CC[C@H](c1ccccc1)c1cc(CCNC(=O)CCOCCOCCOCCOCCNC(=O)CCc2ccc3n2[B-](F)(F)[N+]2=C(c4ccc[nH]4)C=CC2=C3)ccc1O)C(C)C [Tolterodine-2-NB590] | 0.92 | 0.96 | 0.87 | 1.41 | 0.84 | 0.94 | 1.42 | 0.97 | 0.95 | 1.11 | – | – | – | – | – | – | – | – | –
3 | Cc1nc2n(c(=O)c1CCN1CCC(c3noc4cc(F)ccc34)CC1)CCCC2OC(=O)NCCOCCOCCOCCOCCNC(=O)CCc1ccc2n1[B-](F)(F)[N+]1=C(c3ccc[nH]3)C=CC1=C2 (stereo not shown) [Risperidone-2-NB590] | 1.03 | 1.00 | 1.18 | 1.09 | 1.00 | 1.02 | 1.06 | 0.98 | 1.06 | 1.02 | – | – | – | – | – | – | – | – | –
4 | O=C(CCOCCOCCOCCOCCNC(=O)CCc1ccc2n1[B-](F)(F)[N+]1=C(c3ccc[nH]3)C=CC1=C2)NCCCN1CCN(C2=Nc3cc(Cl)ccc3Nc3ccccc32)CC1 [Clozapine-a-2-NB590] | – | – | – | – | – | – | – | – | – | – | 1.05 | 0.94 | 1.02 | 1.04 | 1.02 | 0.98 | 0.95 | 1.06 | NanoBRET Fold Response (TACR2; TACR2, 1μM tracer): 0.89; NanoBRET Fold Response (AVPR1B; AVPR1B, 1μM tracer): 0.97
5 | COc1ccc2[nH]c(-c3ccc(CNC(=O)CCOCCOCCOCCOCCNC(=O)CCc4ccc5n4[B-](F)(F)[N+]4=C(c6ccc[nH]6)C=CC4=C5)cc3)c(CCNC(C)=O)c2n1 [AzomelatoninICO9-2-NB590] | – | – | – | – | – | – | – | – | – | – | – | – | – | – | – | – | – | – | NanoBRET Fold Response (LTB4R; 0.1μM tracer): 1.07; NanoBRET Fold Response (LTB4R; 1μM tracer): 0.99; NanoBRET Fold Response (TACR2; 0.1μM tracer): 0.37; NanoBRET Fold Response (TACR2; 1μM tracer): 0.84; NanoBRET Fold Response (PTGFR; 0.1μM tracer): 0.97; NanoBRET Fold Response (PTGFR; 1μM tracer): 0.91; NanoBRET Fold Response (AVPR1B; 0.1μM tracer): 1.50; NanoBRET Fold Response (AVPR1B; 1μM tracer): 0.90; NanoBRET Fold Response (GHSR; 0.1μM tracer): 0.89; NanoBRET Fold Response (GHSR; 1μM tracer): 0.90
6 | CN1CCN(C2=Nc3cc(Cl)ccc3Nc3ccc(CNC(=O)CCOCCOCCOCCOCCNC(=O)CCc4ccc5n4[B-](F)(F)[N+]4=C(c6ccc[nH]6)C=CC4=C5)cc32)CC1 [Clozapine-b-2-NB590] | – | – | – | – | – | – | – | – | – | – | 1.04 | 1.04 | 0.97 | 1.02 | 1.07 | 0.98 | 1.01 | 1.03 | –

Reference: article PMC8151276, “An Integrated Approach toward NanoBRET Tracers for Analysis of GPCR Ligand Engagement” (Molecules, 2021)
